Measured values: US10450346B2, “Immunotherapy against several tumors of the blood, in particular chronic lymphoid leukemia (CLL)” (Immatics biotechnologies GmbH, priority 2014, dated 2019)

How the values were obtained:
MHC class I = experiment: MHC binding assay (peptide-ligand exchange, β2m ELISA); parameters: species or system human; conditions: yield of UV-exchange reaction
From the text: Candidate peptides for T cell based therapies according to the present invention were further tested for their MHC binding capacity (affinity). The individual peptide-MHC complexes were produced by peptide-ligand exchange, where a cleavage-sensitive peptide is cleaved, and exchanged with the peptide of interest as analyzed. Only peptide candidates that can effectively bind and stabilize the peptide-receptive MHC molecules prevent dissociation of the MHC complexes. To determine the yield of the exchange reaction, an ELISA was performed based on the detection of the light chain (β2m) of stabilized MHC complexes. The assay was performed as generally described in Rodenko et al. (Rodenko et al., Nat Protoc. 1 (2006): 1120-1132).
96 well MAXISorp plates (NUNC) were coated over night with 2 ug/ml streptavidin in PBS at room temperature, washed 4× and blocked for 1 h at 37° C. in 2% BSA containing blocking buffer. Refolded HLA-A*0201/MLA-001 monomers served as standards, covering the range of 15-500 ng/ml. Peptide-MHC monomers of the UV-exchange reaction were diluted 100 fold in blocking buffer. Samples were incubated for 1 h at 37° C., washed four times, incubated with 2 ug/ml HRP conjugated anti-β2m for 1 h at 37° C., washed again and detected with TMB solution that is stopped with […]. Absorption was measured at 450 nm. […]

[1] = system: CD8+ T cells of healthy donors; experiment: In vitro T-cell priming with aAPCs loaded with peptide/MHC complexes and anti-CD28 antibody; assay type: cell-based, human; conditions: pMHC multimer readout
Description: In order to obtain information regarding the immunogenicity of the TUMAPs of the present invention, the inventors performed investigations using an in vitro T-cell priming assay based on repeated stimulations of CD8+ T cells with artificial antigen presenting cells (aAPCs) loaded with peptide/MHC complexes and anti-CD28 antibody. […]
Generation of pMHC/anti-CD28 coated beads, T-cell stimulations and readout was performed in a highly defined in vitro system using four different pMHC molecules per stimulation condition and 8 different pMHC molecules per readout condition. […]
800.000 beads/200 μl were coated in 96-well plates in the presence of 4×12.5 ng different biotin-pMHC, washed and 600 ng biotin anti-CD28 were added subsequently in a volume of 200 μl. […] For the pMHC multimer readout using 8 different pMHC molecules per condition, a two-dimensional combinatorial coding approach was used as previously described (Andersen et al., Nat. Protoc. 7 (2012): 891-902) with minor modifications encompassing coupling to 5 different fluorochromes. […] Peptide specific cells were calculated as percentage of total CD8+cells. […] In vitro priming of specific multimer+ CD8+ lymphocytes was detected by comparing to negative control stimulations.

[2] = system: peptide-specific CD8+ T cells of CLL patient PBMC; experiment: Intracellular IFN-γ and TNF-α staining; assay type: cell-based, human; conditions: peptide stimulated CLL patient PBMC
Description: PBMC from CLL patients and healthy volunteers were cultured in RPMI1640 medium (Gibco) supplemented with 10% pooled human serum (PHS, produced in-house), […] β-mercaptoethanol (Roth, Karlsruhe, Germany) and 1% penicillin/streptomycin (GE). For CD8^+ T cell stimulation, PBMC were thawed and pulsed with 1 μg/ml per peptide. Peptide-pulsed PBMC (5-6×10^6 cells/ml) were cultured at 37° C. and 5% CO2 for 12 days. On day 0 and day […] IL-4 (R&D Systems, Minneapolis, Minn., USA) and 5 ng/ml IL-7 (Promokine, Heidelberg, Germany) were added to the culture medium. On days 3, 5, 7 and 9, 2 ng/ml IL-2 (R&D Systems) were added to the culture medium. Peptide-stimulated PBMC were functionally characterized by ELISPOT assays on day 12 and by intracellular cytokine staining on day 13 respectively. For CD4^+ T-cell stimulation, culture was performed as described for CD8^+ T cells with 2 modifications: pulsing was carried out with 10 μg/ml of HLA class II peptide and no IL-4 and IL-7 was added.
The frequency and functionality of peptide-specific CD8^+ T cells was analyzed by intracellular IFN-γ and TNF-α staining. PBMC were pulsed with 1 μg/ml of individual peptide and incubated in the presence of 10 μg/ml Brefeldin A (Sigma, St. Louis, Mo., USA) and 10 μg/ml GolgiStop (BD) for 6-8 h. […] Samples were analyzed on a FACS Canto II.

CLL patient CD8+ T cells = experiment: HLA:peptide tetramer staining; assay type: cell-based, human
Description: The frequency of peptide-specific CD8^+ T cells was determined by staining with anti-CD8 and HLA:peptide-tetramer-PE

Q: With “229 (FRVGNVQEL; listed as Homo sapiens) [compound 229]” as the substance, how does the “Peptide exchange (MHC class I binding score)” value (MHC class I) read?
A: Its value is “++++ (>=75% = ++++)”.

Q: How did the “in vitro T-cell responses, positive donors of tested donors” value [1] turn out when “KFAEEFYSF (listed as Homo sapiens) [SEQ ID NO: 20]” was run?
A: The value was 2 of 5.

Q: For “239 (SENAFYLSP; listed as Homo sapiens) [compound 239]”, which “Peptide exchange (MHC class I binding score)” value (MHC class I) is on record?
A: Its value is “++++ (>=75% = ++++)”.

Q: With “SSSGLHPPK (listed as Homo sapiens) [SEQ ID NO: 77]” as the substance, how does the “intracellular cytokine staining for IFNγ and TNFα” value [2] read?
A: Its value is “confirmed”.

Q: And the “tetramer staining of CD8+ T cells” value (CLL patient CD8+ T cells)?
A: Its value is “confirmed”.
